What all share (experiment): NCI anticancer screen, dose series, 48 h
The test system of assay [1] is MOLT-4.
The test system of assay [2] is SK-MEL-28.
In assay [3] the test system is UACC-257.
Assay [4] has as its system MDA-MB-435.
Assay [5] deals with SF-295.
Assay [6] deals with UACC-62.
Assay [7] deals with TK-10.
The subject of assay [8] is CCRF-CEM.
The test system of assay [9] is HOP-92.
Assay [10] has as its system SF-268.
Assay [11] has as its system SNB-19.
Assay [12] concerns UO-31.
The test system of assay [13] is OVCAR-3.
The subject of assay [14] is NCI-H522.
For assay [15], the system named is SNB-75.
Assay [16] relates to HCC 2998.
The subject of assay [17] is K562.
For assay [18], the system named is CAKI-1.
Assay [19] has as its system SN12C.
The subject of assay [20] is OVCAR-5.

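Method: 48-hour compound exposure of cells in 96-well plates, five concentrations, linear interpolation of endpoints. GI50 = concentration required for 50% inhibition of growth.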 Active and inactive are the calls of the source. Cut-off read from the data, not from the text of the source: active = GI50 up to about 1.1 µM and inactive = higher.

Eleven compounds from ChEMBL document CHEMBL1201862, “PubChem BioAssay data set” (2004) can be followed below.

On to `Cc1nc2ccc(F)cc2c2c1CCS2`, for which the GI50 in [1] is 38.1 µM (inactive); in [2] it was 80.5 µM (inactive); in assay [3] it was 71.9 µM (inactive); in [4], 35.8 µM (inactive); in [5], 94.4 µM (inactive); in assay [6] it was 81.7 µM (inactive). The GI50 in [7] is 54.5 µM (inactive); in [8], 41 µM (inactive); in [9], 94.6 µM (inactive); in assay [10], 40.6 µM (inactive); in [11] it was 30.3 µM (inactive); in assay [12], 65.9 µM (inactive). In addition, the GI50 is 45.9 µM (inactive) in [13]; 75.5 µM (inactive) in assay [14]; 38.6 µM (inactive) in [15]; 58.1 µM (inactive) in assay [16]; 34.6 µM (inactive) in assay [17].

Consider `O=C1Nc2ccccc2/C1=C\c1c(Cl)n(-c2ccccc2)c2ccccc12`, for which the GI50 is 4.82 µM (inactive) in assay [1]; 12 µM (inactive) in assay [2]; 9.2 µM (inactive) in [3]; 0.759 µM (active) in assay [4]; 3.18 µM (inactive) in [5]; 8.07 µM (inactive) in assay [6]. For the same compound, the GI50 in assay [7] is 3.95 µM (inactive); in assay [8] it was 6.65 µM (inactive); in assay [9] it was 0.946 µM (active); in assay [10] it was 0.832 µM (active); in [11], 2.99 µM (inactive); in [18], 2.49 µM (inactive). Further, the GI50 is 2.4 µM (inactive) in [12]; 1.92 µM (inactive) in assay [13]; 3.61 µM (inactive) in assay [19]; 1.73 µM (inactive) in [15]; 3.15 µM (inactive) in [16]; 3.08 µM (inactive) in assay [20]. Also, in [17], the GI50 was 2.48 µM (inactive).

As for `CC(=O)N[C@H]1CCCC[C@@H]1OC(C)=O`, the GI50 in [1], in assay [2], in assay [3], in [4], in assay [5] and in assay [6] was > 100 µM (inactive) each time. Moreover, the GI50 in assay [7], in assay [9], in [18], in [13], in [14] and in assay [19] was > 100 µM (inactive) each time. Further, the GI50 in assay [15], in assay [16], in assay [20] and in assay [17] was > 100 µM (inactive) throughout.

Regarding `CCCCCc1cc2cc3c(c(O)c2c(=O)[nH]1)C1(CCC3)C(=O)c2c(O)c3c(c(O)c2C1=O)C(=O)C(OC)=CC3=O` (configuration not stated), the GI50 in assay [1] is 0.582 µM (active); in assay [2], 1.29 µM (inactive); in assay [3], 0.783 µM (active); in assay [4], 0.908 µM (active); in [5], 1.91 µM (inactive); in assay [6], 0.916 µM (active). For the same compound, the GI50 in [8] is 0.586 µM (active); in assay [9], 0.433 µM (active); in assay [10], 0.807 µM (active); in assay [11], 1.49 µM (inactive); in [18], 0.502 µM (active); in [12], 0.579 µM (active). Also, the GI50 in [13] was 0.499 µM (active); in assay [14] it was 0.59 µM (active); in assay [19] it was 1.01 µM (active); in assay [15], 0.906 µM (active); in [16] it was 2.05 µM (inactive); in assay [20] it was 2.02 µM (inactive). Also, the GI50 in [17] is 0.42 µM (active).

On to `CCOC(=O)c1nc2ccc(C(F)(F)F)cc2nc1Nc1cc(OC)c(OC)c(OC)c1`, for which the GI50 in assay [1], in [2], in assay [3], in [4], in assay [5] and in [6] was > 100 µM (inactive) throughout. Further, the GI50 in [7], in assay [8], in assay [9], in assay [10], in [11] and in assay [12] was > 100 µM (inactive) each time. The GI50 in [13], in assay [14], in assay [19], in assay [15], in [16] and in assay [20] was > 100 µM (inactive) throughout. Also, the GI50 in assay [17] was > 100 µM (inactive).

`CC(C)C[C@H](NC(=O)[C@H](Cc1cccc2ccccc12)NS(=O)(=O)c1cccc2cccnc12)B(O)O`: the GI50 in assay [1] is < 0.01 µM (active); in assay [3], 0.0103 µM (active); in [4], < 0.01 µM (active); in assay [6], 0.0223 µM (active); in [7], < 0.0285 µM (active); in [8], < 0.01 µM (active). Further, the GI50 in assay [9] was 0.00726 µM (active); in assay [11], < 0.0225 µM (active); in [18], 0.0923 µM (active); in [12], 0.279 µM (active); in assay [13], < 0.0111 µM (active); in assay [14] it was 0.0106 µM (active). Also, the GI50 in assay [19] is < 0.0122 µM (active); in assay [16], 0.00219 µM (active); in assay [20], < 0.0142 µM (active); in assay [17] it was < 0.0196 µM (active).

Take `O=C1C(=O)N(C2CCCCC2)C(=S)N1C1CCCCC1`: the GI50 in assay [1], in assay [2], in assay [3], in assay [4], in assay [5] and in assay [6] was > 100 µM (inactive) throughout. Further, the GI50 in assay [7], in assay [8], in [9], in assay [10], in assay [11] and in assay [18] was > 100 µM (inactive) throughout. Also, the GI50 was > 100 µM (inactive) in [12]; 7.76 µM (inactive) in assay [14]; > 100 µM (inactive) in [19]; > 100 µM (inactive) in assay [15]; > 100 µM (inactive) in assay [16]; > 100 µM (inactive) in assay [20]. Also, the GI50 in [17] was > 100 µM (inactive).

As to `CC(C)(C)C(=O)Oc1ccc(/C=C/C(=O)c2ccc(OC(=O)C(C)(C)C)cc2)cc1`, the GI50 in [1] is 24.4 µM (inactive); in [2], 97.3 µM (inactive); in assay [3], 60.5 µM (inactive); in assay [4], 55.2 µM (inactive); in [5] it was 93.3 µM (inactive); in [6], > 100 µM (inactive). Further, the GI50 is > 100 µM (inactive) in assay [7]; 6.53 µM (inactive) in [8]; > 100 µM (inactive) in assay [9]; 74 µM (inactive) in assay [10]; 45.2 µM (inactive) in assay [11]; 21.1 µM (inactive) in assay [18]. For the same compound, the GI50 in [13] was 27.5 µM (inactive); in assay [14], 3.12 µM (inactive); in assay [19] it was 42.8 µM (inactive); in assay [15], 64.9 µM (inactive); in [16] it was > 100 µM (inactive); in assay [20], > 100 µM (inactive). Further, the GI50 in [17] is 26.3 µM (inactive).

For `N#CC1=C(N)N(/N=C/c2ccco2)C(c2ccco2)C1(C#N)C#N` (configuration not stated), the GI50 in [1] is 11.9 µM (inactive); in [3], 16.3 µM (inactive); in assay [4] it was 21.3 µM (inactive); in assay [5], 28.4 µM (inactive); in assay [6], 17.6 µM (inactive); in assay [7], 17.4 µM (inactive). In addition, the GI50 in assay [8] is 4.76 µM (inactive); in [9] it was 16.6 µM (inactive); in [10] it was 24.6 µM (inactive); in [11], 20.4 µM (inactive); in assay [18], 15.2 µM (inactive); in assay [12], 18.6 µM (inactive). Besides, the GI50 was 18.2 µM (inactive) in [13]; 15.3 µM (inactive) in assay [14]; 26.9 µM (inactive) in [19]; 16.8 µM (inactive) in [15]; 19.4 µM (inactive) in [16]; 20.3 µM (inactive) in assay [20]. For the same compound, the GI50 in [17] is 5.7 µM (inactive).

For the compound `Cc1cc2c3c(c1)CCCN3CCC2`, the GI50 in assay [1], in assay [2], in [3], in [4], in assay [5] and in assay [6] was > 10 µM (inactive) each time. Also, the GI50 in assay [7], in assay [8], in assay [9], in [10], in assay [11] and in assay [18] was > 10 µM (inactive) throughout. In addition, the GI50 in assay [12], in assay [13], in assay [14], in assay [19], in assay [15] and in [16] was > 10 µM (inactive) each time. Also, the GI50 in [17] was > 10 µM (inactive).

Consider `COc1ccc(/C=N\NC(=O)Nc2cccc3ccccc23)cc1`, for which the GI50 in assay [2] is > 100 µM (inactive); in assay [3] it was 34.9 µM (inactive); in [4], 4.06 µM (inactive); in [7] it was 20.7 µM (inactive); in [8], > 100 µM (inactive); in assay [9], 21.4 µM (inactive). For the same compound, the GI50 in assay [10] was 17.7 µM (inactive); in assay [11] it was 17.1 µM (inactive); in assay [18], 13.7 µM (inactive); in assay [12], 35.3 µM (inactive); in assay [14], 15.6 µM (inactive); in [19] it was 49.3 µM (inactive). The results for the GI50 in [15], in assay [16] and in [20] were 9.98 µM (inactive), 47.5 µM (inactive) and > 100 µM (inactive), respectively.
